Experiments:
[1] = test system: human islet cells; assay: Caspase-Glo 3/7 assay in palmitic acid-treated human islets; assay type: cell-based; set-up: rescuing human islet cells from apoptosis, compared with L-798106 / inhibiting or reversing palmitate-induced apoptosis in pancreatic islets of both human donors / inhibition of palmitate-induced apoptosis in human islets, donor 1: dose or concentration left out as unconfirmed; details: palmitic acid, 48 h; for rescuing human islet cells from apoptosis, compared with L-798106: two human donors
Procedure: (§1) Islet and cell culture: The pancreatic β-cell line MIN6, which is a clonal murine insulin-secreting line, was cultured in DMEM (Biological Industries, Beit Haemek, Israel) supplemented with 11 mM Glucose, 2 mM glutamine, 15% heat-inactivated fetal calf serum (FCS), 100 U/ml penicillin, 100 µg/ml streptomycin and 61 μM β-mercaptoethanol. Human islets were obtained from the European Consortium for Islet Transplantation (ECIT) at the San Raffaele Hospital and from the Niguarda Hospital, (Milan, Italy) and cultured in CMRL-1066 media (Biological Industries, Beit HaEmek, Israel) supplemented with 10% FCS, 5.5 mM glucose, 2 mM L-Glutamine, 100 U/ml penicillin, 100 μg/ml streptomycin and 150 μg/ml gentamycin. Palmitate was added to 1% FCS and 0.5% defatted BSA (Roche, Germany).
Next, the ability of the compounds to rescue human islet cells from palmitate-induced apoptosis was determined. To this end, the Caspase-Glo 3/7 assay reagent (Promega) was used for caspase 3/7 detection in palmitic acid-treated cells. The reagent provides a proluminescent caspase-3/7 substrate, which contains the tetrapeptide sequence DEVD, in combination with luciferase and a cell-lysing agent. The addition of the reagent directly to the wells results in cell lysis, followed by caspase cleavage of the DEVD substrate, and the generation of luminescence.
Accordingly, human islets from two donors were exposed to the various compounds or to L-798106 for 48 h in the presence of palmitic acid, and the bioluminescence was measured as compared to control cells. FIGS. 3A-3B show the results of the treatment with […] of the compounds in two human donors (FIG. 3A—donor 1, FIG. 3B—donor 2). PA: Palmitate; L: L-798106; RLU: Relative Light Units. The results are average of triplicates or quadruplicates ±SEM (except in islets from L-798106 treated donor 2, representing duplicates).
Next, various concentrations of the compounds were tested in human pancreatic islet cells. Cells obtained from the first healthy donor (donor 1) were incubated in the presence or absence of PA with C13, C5 or L-798106 (L) at concentrations of 5, 2.5 and 0.5 μM. Caspase 3/7 enzymatic activity was measured as described above. The enzymatic activity is presented in FIG. 5A for 5 μM, FIG. 5B for 2.5 μM and FIG. 5C for 0.5 μM as relative light units (RLU/μg protein) and the graphs represent the average of n=3-4.

[2] = test system: db/db mice; assay: random blood glucose levels in db/db and control mice; assay type: in vivo; details: for average random blood glucose levels in db/db mice: 8 weeks gavage, compared to the vehicle; for random blood glucose levels at 8 weeks: compared with L-798106 treated mice
Procedure: The effects of the compounds were tested in an in vivo model of diabetes. To this end, C57BLKS/J mice with the leptin receptor mutation (BKS-db; BKS.Cg-Dock7m+/+Leprdb/J), known as an animal model characteristic of human T2DM, were used, when both male and female homozygotes to Leprb mutation (db/db) develop spontaneous T2DM with phenotypes that include: (I) severe obesity, (II) progressive and sustained hyperglycemia, when the course of the disease is markedly influenced by genetic background BLKS (in contrast to regular C57BL/6J background mice with the same mutation (B6-db), (III) glucose intolerance resulting in elevated serum cholesterol, glucose, and triglycerides, and (VI) elevations of plasma blood sugar resulting in severe depletion of the insulin-producing β-cells of the pancreatic islets, and eventually death.
Two sets of experiments with two colonies of homozygote mice were performed with the C5 and C13 compounds (n=5 for each experiment), compared to L-798106. The compounds were administered to 7-8-week-old mice by oral gavage (2.5 mg/kg/day) for eight weeks. Control group (n=10-15) received vehicle (DMSO in PBS). Blood glucose was randomly tested throughout the experiment.
To test the effect of the compounds C15, C17 and C20 on random blood glucose levels, control and db/db mice underwent essentially the same treatment course and measurements as described in Example 9.

[3] = test system: db/db mice; assay: intraperitoneal glucose tolerance test (IPGTT); assay type: in vivo; details: 8 weeks oral 2.5 mg/kg/day; glucose 1 g/kg; all time points; vs vehicle
Procedure: Lepr^db/db homozygotes (db/db) and heterozygote Lepr^db/+ (wild type) mice were treated daily with 2.5 mg/kg/day oral administration of the Vehicle, the commercial EP3 antagonist L-798106 and the compounds C5 and C13 for 8 weeks, as described in Example 9. A glucose tolerance test (Intraperitoneal glucose tolerance test, IPGTT) was performed following four weeks and eight weeks of the onset of treatment, as follows. Glucose (1 g/kg) was injected following 8 hours of fasting, and blood glucose was measured at baseline and at 30-, 60-, 90- and 120-minutes post glucose administration.
Heterozygote (wild type) and diabetic db/db mice were treated daily with the Vehicle, L-798106 and the compounds C17 and C20 for 8 weeks, essentially as described in Example 9. A glucose tolerance test (IPGTT) was performed essentially as described in Example 10.

[4] = test system: db/db mice; assay: Insulin Tolerance Test (ITT); assay type: in vivo; details: 8 weeks oral treatment; 0.75 U/kg insulin; all time points; vs vehicle
Procedure: An Insulin Tolerance Test (ITT) was conducted to determine the effect of the test compounds on insulin resistance, following oral administration of Vehicle or the tested compounds as described in Example 9. To this end, the different treated groups were further subjected to a subsequent 5-hour fast and then injected with 0.75 U/kg insulin. Blood glucose was measured at the time of insulin injection (baseline level) and at the indicated time intervals thereafter. Blood glucose levels and AUC of the wild-type mice are presented in FIGS. 19A-19B respectively, and blood glucose levels and AUC of the db/db mice are presented in FIGS. 19C-19D respectively. The different test groups as presented in FIGS. 19A-19D are represented as described in Example 9.
To determine the effect of the C17 and C20 compounds on insulin resistance, an ITT was conducted essentially as described in Example 11. Blood glucose levels and AUC of the wild-type mice are presented in FIGS. 27A-27B respectively (n=5-15), and blood glucose levels and AUC of the db/db mice are presented in FIGS. 27C-27D respectively (n=5-10). The different test groups as presented in FIGS. 27A-27D are represented as described in Example 14.

[5] = blood insulin concentrations by serum C-peptide ELISA; assay type: in vivo; details: 8 weeks oral treatment; vs vehicle-treated diabetic mice
Procedure: At the end of the 8 week-long period of treatment as described in Example 9, mice were sacrificed and blood samples were collected, and analyzed for different parameters as detailed below.
Blood insulin concentrations.
Blood insulin concentrations. Following 8 weeks of treatment, blood samples were collected and the levels of insulin in the collected sera were assessed essentially as described in Example 12. The results are presented in FIG. 28, in which the different test groups as presented in FIG. 28 are represented as described in Example 14 and “ns” indicates non-significant differences. The numbers of tested mice are as follows: vehicle (n=10), L-798106 (n=10), C17 (n=5), C20 (n=5).

[6] = test system: MIN6 cells; assay: rescue of MIN6 cells from palmitate-induced apoptosis (cleaved caspase 3 western blot; FACS SubG1); assay type: cell-based, murine; details: palmitic acid 0.3 mM, 48 hours; compared to L-798106
Procedure: as §1
Western blotting: Cells were lyzed in Laemmli protein sample buffer, separated on SDS-polyacrylamide gel, and transferred to […] nitrocellulose membranes (Schleicher and Schuell, Dassel, Germany). After blocking in 5% dried skimmed milk, the membranes were first incubated with the appropriate antibodies against: cleaved caspase-3 (Asp175) (Cell Signaling Technology Danvers, MA) and α-tubulin (Sigma-Aldrich.) and then with horseradish peroxidase conjugated anti-rabbit or anti-mouse IgG, followed by analysis with an enhanced chemiluminescence detection kit (Biological Industries, Israel).
The remaining compounds were screened for the ability to rescue β-cells from palmitate-induced apoptosis as compared to the commercial EP3 antagonist L-798106 by measuring the levels of the cleaved caspase 3 apoptotic marker, using Western Blot analysis (FIG. 1). […] Cell extracts were analyzed by western blotting for the presence of cleaved caspase 3 as compared to α-Tubulin.
The ability of the compounds to rescue β-cells from apoptosis was also evaluated using FACS analysis and measuring the SubG1 population (FIG. 2). […] Collected cells were analyzed by FACS and the SubG1 fractions (representing apoptotic cell products or components were compared. The average of 4-6 independent experiments is presented in FIG. 2.

[7] = test system: pancreatic β-cell; details: chow and high-fat diet islets; cited from earlier work

**Q.** Which “inhibition of palmitate-induced apoptosis in human islets, donor 1” value [1] does the source give for `Cc1n[nH]c(C)c1S(=O)(=O)Nc1ccccc1C(=O)N[C@@H](C)c1ccccc1` [Compound C4, (S)-2-((3,5-dimethyl-1H-pyrazole)-4-sulfonamido)-N-(1-phenylethyl)benzamide] here?
**A.** Its value is “moderate inhibitory activity comparable to that of L-798106”.

**Q.** For `Cc1nn(C)c(C)c1C[C@@H](C)NC(=O)c1ccc(S(=O)(=O)Nc2ccccc2F)cc1` [Compound C9, (R)-4-(N-(2-fluorophenyl)sulfamoyl)-N-(1-(1,3,5-trimethyl-1H-pyrazol-4-yl)propan-2-yl)benzamide], which “inhibition of palmitate-induced apoptosis in human islets, donor 1” value [1] is on record?
**A.** The value was “marked inhibitory activity”.

**Q.** Which “inhibiting or reversing palmitate-induced apoptosis in pancreatic islets of both human donors” value [1] does the source give for `CCn1nc(C)c(S(=O)(=O)Nc2ccc(Cl)cc2C(=O)c2ccc[nH]2)c1C` [Compound C10, N-(4-chloro-2-(1H-pyrrole-2-carbonyl)phenyl)-1-ethyl-3,5-dimethyl-1H-pyrazole-4-sulfonamide] here?
**A.** The value was “failed to inhibit”.

**Q.** With `COc1ccc([C@@H](CC(=O)O)NC(=O)c2cn(Cc3cccc(F)c3)nn2)cc1OC` [Compound C12, (R)-3-(3,4-dimethoxyphenyl)-3-(1-(3-fluorobenzyl)-1H-1,2,3-triazole-4-carboxamido)propanoic acid] as the compound, how does the “rescuing human islet cells from apoptosis, compared with L-798106” value [1] read?
**A.** The value was “to a greater extent than the EP3 antagonist L-798106”.

**Q.** What does the source list for `COc1cc(/C=C(\CCC(=O)O)c2nc3ccccc3s2)ccc1OCc1ccccc1` [Compound C15, (E)-4-(benzo[d]thiazol-2-yl)-5-(4-(benzyloxy)-3-methoxyphenyl)pent-4-enoic acid]?
**A.** average random blood glucose levels in db/db mice [2]: effective in lowering average blood glucose levels; rescuing human islet cells from apoptosis, compared with L-798106 [1]: to a greater extent than the EP3 antagonist L-798106

**Q.** What does the source list for `COc1cc(/C=C(/CC(=O)O)c2nc3ccccc3s2)ccc1OCc1cccc(C(F)(F)F)c1` [Compound C17, (Z)-3-(benzo[d]thiazol-2-yl)-4-(3-methoxy-4-((3-(trifluoromethyl)benzyl)oxy)phenyl)but-3-enoic acid]?
**A.** average random blood glucose levels in db/db mice [2]: effective in lowering average blood glucose levels; random blood glucose levels at 8 weeks [2]: the same blood glucose levels as the L-798106 treated mice; hyperglycemia in IPGTT, db/db mice [3]: significantly alleviated hyperglycaemia; rescuing human islet cells from apoptosis, compared with L-798106 [1]: to a greater extent than the EP3 antagonist L-798106; glucose levels after insulin injection (insulin sensitivity), db/db mice [4]: Improve Insulin Sensitivity; blood insulin levels (serum C-peptide) in diabetic mice [5]: the differences did not reach statistical significance; rescue of β-cells from palmitate-induced apoptosis (cleaved caspase 3; SubG1 population) [6]: exceptionally high efficacy

**Q.** With `COc1cc(/C=C(\CCC(=O)O)c2nc3ccccc3s2)ccc1OCc1ccc(F)cc1` [Compound C20, (E)-4-(benzo[d]thiazol-2-yl)-5-(4-((4-fluorobenzyl)oxy)-3-methoxyphenyl)pent-4-enoic acid] as the compound, how does the “average random blood glucose levels in db/db mice” value [2] read?
**A.** Its value is “effective in lowering average blood glucose levels”.

**Q.** What about the “random blood glucose levels at 8 weeks” value [2] of the same compound?
**A.** The value was “the same blood glucose levels as the L-798106 treated mice”.

**Q.** What about the “hyperglycemia in IPGTT, db/db mice” value [3] of the same compound?
**A.** Its value is “significantly alleviated hyperglycaemia”.

**Q.** What about the “rescuing human islet cells from apoptosis, compared with L-798106” value [1] of the same compound?
**A.** Its value is “to a greater extent than the EP3 antagonist L-798106”.

**Q.** And the “glucose levels after insulin injection (insulin sensitivity), db/db mice” value [4]?
**A.** Its value is “Improve Insulin Sensitivity”.

**Q.** What about the “blood insulin levels (serum C-peptide) in diabetic mice” value [5] of the same compound?
**A.** The value was “the differences did not reach statistical significance”.

**Q.** For `C=C1C(=O)OC(CCCCCCCC)C1C(=O)O` (stereo not drawn) [Compound C75], which glucose-induced insulin secretion [7] is on record?
**A.** The glucose-induced insulin secretion was “markedly reduced”.

**Q.** And the “β cell electrical activity” value [7]?
**A.** The value was “markedly reduced”.

— US20240261296A1, “THERAPEUTIC MODALITIES FOR INHIBITING PANCREATIC BETA CELL IMPAIRMENT AND TREATING DIABETES” (Hadasit Medical Research Serices & Development Ltd., priority 2021, published 2024)
